# From PubChem BioAssay AID1963838 (Molecular Pharmacology Branch, DTP, NCI, 2024)
# Tested on: 855422-203-R-J1-PDC complex spheroid viability
# Assay: Anticancer human tumor 855422-203-R-J1-PDC patient-derived bladder carcinoma cell line growth inhibition [POLQ]
# Conditions: for IC50: curve of first compound; for viability, T/C: stronger effect = lower value
# Outline: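 Growth inhibition in 3D: complex spheroids (tumor PDC, HUVEC, MSC) treated with POLQ inhibitor combinations; where Cmax unknown, highest tested concentration 10 microM, except SN-38 at 1 microM.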
# [1] = second compound 0.0316 µM, first compound 0.0316 µM
# [2] = second compound 0.0316 µM, first compound 0.1 µM
# [3] = second compound 0.0316 µM, first compound 0.316 µM
# [4] = second compound 0.0316 µM, first compound 1 µM
# [5] = second compound 0.0316 µM, first compound 3.16 µM
# [6] = second compound 0.0316 µM, first compound 10 µM
# [7] = second compound 0.1 µM, first compound 0.0316 µM
# [8] = second compound 0.1 µM, first compound 0.1 µM
# [9] = second compound 0.1 µM, first compound 0.316 µM
# [10] = second compound 0.1 µM, first compound 1 µM
# [11] = second compound 0.1 µM, first compound 3.16 µM
# [12] = second compound 0.1 µM, first compound 10 µM
# [13] = second compound 0.316 µM, first compound 0.0316 µM
# [14] = second compound 0.316 µM, first compound 0.1 µM
# [15] = second compound 0.316 µM, first compound 0.316 µM
# [16] = second compound 0.316 µM, first compound 1 µM
# [17] = second compound 0.316 µM, first compound 3.16 µM
# [18] = second compound 0.316 µM, first compound 10 µM
# [19] = second compound 1 µM, first compound 0.0316 µM
# [20] = second compound 1 µM, first compound 0.1 µM
# [21] = second compound 1 µM, first compound 0.316 µM
# [22] = second compound 1 µM, first compound 1 µM
# [23] = second compound 1 µM, first compound 3.16 µM
# [24] = second compound 1 µM, first compound 10 µM
# [25] = second compound 3.16 µM, first compound 0.0316 µM
# [26] = second compound 3.16 µM, first compound 0.1 µM
# [27] = second compound 3.16 µM, first compound 0.316 µM
# [28] = second compound 3.16 µM, first compound 1 µM
# [29] = second compound 3.16 µM, first compound 3.16 µM
# [30] = second compound 3.16 µM, first compound 10 µM
# [31] = second compound 10 µM, first compound 0.0316 µM
# [32] = second compound 10 µM, first compound 0.1 µM
# [33] = second compound 10 µM, first compound 0.316 µM
# [34] = second compound 10 µM, first compound 1 µM
# [35] = second compound 10 µM, first compound 3.16 µM
# [36] = second compound 10 µM, first compound 10 µM
# 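Further: spheroids exposed to compounds for seven days before readout.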
compound,measurement,setting,value
C#Cc1c(F)ccc2cc(O)cc(-c3ncc4c(N5CC6CCC(C5)N6)nc(OCC56CCCN5CC(F)C6)nc4c3F)c12 (stereo unspecified) + COC1C(OC(N)=O)C(O)C(Oc2ccc3c(O)c(NC(=O)c4ccc(O)c(CC=C(C)C)c4)c(=O)oc3c2C)OC1(C)C,IC50,second compound 0.0316 µM,> 10 µM
same,IC50,second compound 0.1 µM,> 10 µM
same,IC50,second compound 0.316 µM,> 10 µM
same,IC50,second compound 1 µM,> 10 µM
same,IC50,second compound 3.16 µM,> 10 µM
same,IC50,second compound 10 µM,> 10 µM
same,"viability, T/C",[1],102%
same,"viability, T/C",[2],105%
same,"viability, T/C",[3],96.1%
same,"viability, T/C",[4],109%
same,"viability, T/C",[5],123%
same,"viability, T/C",[6],120%
same,"viability, T/C",[7],103%
same,"viability, T/C",[8],114%
same,"viability, T/C",[9],98.4%
same,"viability, T/C",[10],108%
same,"viability, T/C",[11],102%
same,"viability, T/C",[12],108%
same,"viability, T/C",[13],108%
same,"viability, T/C",[14],103%
same,"viability, T/C",[15],122%
same,"viability, T/C",[16],115%
same,"viability, T/C",[17],114%
same,"viability, T/C",[18],117%
same,"viability, T/C",[19],103%
same,"viability, T/C",[20],97.3%
same,"viability, T/C",[21],117%
same,"viability, T/C",[22],115%
same,"viability, T/C",[23],120%
same,"viability, T/C",[24],111%
same,"viability, T/C",[25],107%
same,"viability, T/C",[26],109%
same,"viability, T/C",[27],123%
same,"viability, T/C",[28],111%
same,"viability, T/C",[29],96.5%
same,"viability, T/C",[30],99.2%
same,"viability, T/C",[31],102%
same,"viability, T/C",[32],104%
same,"viability, T/C",[33],108%
same,"viability, T/C",[34],117%
same,"viability, T/C",[35],112%
same,"viability, T/C",[36],115%
CC[C@@]1(O)C(=O)OCc2c1cc1n(c2=O)Cc2cc3c(CN(C)C)c(O)ccc3nc2-1 + Nc1ccc(C#CCN(C(=O)Cc2ncc(C(F)(F)F)cc2C(F)(F)F)c2ccc(F)cc2)nn1,IC50,second compound 0.0316 µM,0.0572 µM
same,IC50,second compound 0.1 µM,0.0667 µM
same,IC50,second compound 0.316 µM,0.062 µM
same,IC50,second compound 1 µM,0.0597 µM
same,IC50,second compound 3.16 µM,0.0664 µM
same,IC50,second compound 10 µM,0.064 µM
same,"viability, T/C","second compound 0.0316 µM, first compound 0.000316 µM",89.5%
same,"viability, T/C","second compound 0.0316 µM, first compound 0.001 µM",111%
same,"viability, T/C","second compound 0.0316 µM, first compound 0.00316 µM",101%
same,"viability, T/C","second compound 0.0316 µM, first compound 0.01 µM",89.6%
same,"viability, T/C",[1],86.9%
same,"viability, T/C",[2],16.9%
same,"viability, T/C","second compound 0.1 µM, first compound 0.000316 µM",83.8%
same,"viability, T/C","second compound 0.1 µM, first compound 0.001 µM",129%
same,"viability, T/C","second compound 0.1 µM, first compound 0.00316 µM",102%
same,"viability, T/C","second compound 0.1 µM, first compound 0.01 µM",98.4%
same,"viability, T/C",[7],99.3%
same,"viability, T/C",[8],23.3%
same,"viability, T/C","second compound 0.316 µM, first compound 0.000316 µM",91.8%
same,"viability, T/C","second compound 0.316 µM, first compound 0.001 µM",99%
same,"viability, T/C","second compound 0.316 µM, first compound 0.00316 µM",91.8%
same,"viability, T/C","second compound 0.316 µM, first compound 0.01 µM",101%
same,"viability, T/C",[13],97.1%
same,"viability, T/C",[14],17.1%
same,"viability, T/C","second compound 1 µM, first compound 0.000316 µM",94.6%
same,"viability, T/C","second compound 1 µM, first compound 0.001 µM",88.5%
same,"viability, T/C","second compound 1 µM, first compound 0.00316 µM",109%
same,"viability, T/C","second compound 1 µM, first compound 0.01 µM",114%
same,"viability, T/C",[19],83%
same,"viability, T/C",[20],23.1%
same,"viability, T/C","second compound 3.16 µM, first compound 0.000316 µM",92.8%
same,"viability, T/C","second compound 3.16 µM, first compound 0.001 µM",106%
same,"viability, T/C","second compound 3.16 µM, first compound 0.00316 µM",99.4%
same,"viability, T/C","second compound 3.16 µM, first compound 0.01 µM",117%
same,"viability, T/C",[25],102%
same,"viability, T/C",[26],21.3%
same,"viability, T/C","second compound 10 µM, first compound 0.000316 µM",98.7%
same,"viability, T/C","second compound 10 µM, first compound 0.001 µM",93.7%
same,"viability, T/C","second compound 10 µM, first compound 0.00316 µM",97%
same,"viability, T/C","second compound 10 µM, first compound 0.01 µM",100%
same,"viability, T/C",[31],95.3%
same,"viability, T/C",[32],21.2%
CC1COCCN1c1cc(-c2ccnn2C)c2ccnc(-c3ccn[nH]3)c2n1 (stereo unspecified) + Nc1ccc(C#CCN(C(=O)Cc2ncc(C(F)(F)F)cc2C(F)(F)F)c2ccc(F)cc2)nn1,IC50,second compound 0.0316 µM,0.255 µM
same,IC50,second compound 0.1 µM,0.275 µM
same,IC50,second compound 0.316 µM,0.253 µM
same,IC50,second compound 1 µM,0.203 µM
same,IC50,second compound 3.16 µM,0.234 µM
same,IC50,second compound 10 µM,0.202 µM
same,"viability, T/C",[1],124%
same,"viability, T/C",[2],124%
same,"viability, T/C",[3],33.2%
same,"viability, T/C",[4],16%
same,"viability, T/C",[5],13.6%
same,"viability, T/C",[6],12.8%
same,"viability, T/C",[7],118%
same,"viability, T/C",[8],159%
same,"viability, T/C",[9],37.7%
same,"viability, T/C",[10],17.4%
same,"viability, T/C",[11],11.8%
same,"viability, T/C",[12],11.9%
same,"viability, T/C",[13],128%
same,"viability, T/C",[14],140%
same,"viability, T/C",[15],30%
same,"viability, T/C",[16],13.2%
same,"viability, T/C",[17],11.3%
same,"viability, T/C",[18],10.5%
same,"viability, T/C",[19],119%
same,"viability, T/C",[20],92.5%
same,"viability, T/C",[21],23.3%
same,"viability, T/C",[22],15.3%
same,"viability, T/C",[23],12.6%
same,"viability, T/C",[24],8.88%
same,"viability, T/C",[25],102%
same,"viability, T/C",[26],128%
same,"viability, T/C",[27],27.1%
same,"viability, T/C",[28],15.1%
same,"viability, T/C",[29],10.3%
same,"viability, T/C",[30],8.61%
same,"viability, T/C",[31],119%
same,"viability, T/C",[32],88.8%
same,"viability, T/C",[33],25.2%
same,"viability, T/C",[34],12.9%
same,"viability, T/C",[35],11.1%
same,"viability, T/C",[36],10.7%
